ChEMBL document CHEMBL4041477, “Design, synthesis and biological evaluation of novel 2,3-dihydroquinazolin- 4(1H)-one derivatives as potential fXa inhibitors” (Eur J Med Chem, 2017)

Tests used:
[1] = target: Coagulation factor X (Homo sapiens, UniProt P00742); experiment: Inhibition of human factor 10a using substrate S-2765 preincubated for 30 mins followed by substrate addition measured after 20 mins by micro plate reader method
[2] = test system: Plasma; experiment: Anticoagulant activity in rabbit plasma assessed as increase in activated partial thromboplastin time after 10 mins by coagulometer; type: functional, Oryctolagus cuniculus
[3] = test system: Plasma; experiment: Anticoagulant activity in rabbit plasma assessed as increase in prothrombin time after 10 mins by coagulometer; type: functional, Oryctolagus cuniculus
[4] = target: Prothrombin (Homo sapiens, UniProt P00734); experiment: Inhibition of human thrombin using substrate S-2238 preincubated for 30 mins followed by substrate addition measured after 20 mins by micro plate reader method
[5] = test system: Rattus norvegicus; experiment: Toxicity in po dosed rat assessed as increase in tail bleeding time administered 60 mins prior to tail transection measured over 30 mins; type: organism-based; conditions: in vivo, 0.5 h
[6] = test system: Rattus norvegicus; experiment: Antithrombotic activity in rat model of arteriovenous shunt assessed as reduction in thrombus weight at 10 mg/kg, po administered 60 mins prior to shunt opening; type: functional, organism-based
[7] = test system: Rattus norvegicus; experiment: Antithrombotic activity in po dosed rat model of arteriovenous shunt assessed as reduction in thrombus weight administered 60 mins prior to shunt opening; type: functional, organism-based

Sequence of Coagulation factor X (P00742 41-179 limits assumed): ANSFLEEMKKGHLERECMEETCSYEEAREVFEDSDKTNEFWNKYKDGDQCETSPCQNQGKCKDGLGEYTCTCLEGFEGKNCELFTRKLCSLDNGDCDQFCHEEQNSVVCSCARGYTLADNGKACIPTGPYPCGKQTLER
Sequence of Coagulation factor X (P00742 235-488 limits assumed): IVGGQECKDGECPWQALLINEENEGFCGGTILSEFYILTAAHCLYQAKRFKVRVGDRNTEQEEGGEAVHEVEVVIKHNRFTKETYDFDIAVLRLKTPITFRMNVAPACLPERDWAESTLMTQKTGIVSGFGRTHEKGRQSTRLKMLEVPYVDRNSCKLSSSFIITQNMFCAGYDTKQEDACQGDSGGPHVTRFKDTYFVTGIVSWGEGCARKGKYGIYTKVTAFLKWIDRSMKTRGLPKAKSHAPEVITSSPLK

Row | Structure (SMILES) | IC50 [1] | other results
1 | COc1ccc2c(c1)C(=O)N(c1ccc(N3CCCCC3=O)cc1)CN2C(=O)c1ccc(Cl)s1 | 179000 nM | –
2 | COc1ccc2c(c1)C(=O)N(c1ccc(N3CCOCC3=O)cc1)CN2C(=O)CCc1ccc(Cl)cc1 | 2210 nM | –
3 | COc1ccc2c(c1)C(=O)N(c1ccc(N3CCOCC3=O)cc1)CN2C(=O)c1ccc(CCl)cc1 | 1410 nM | –
4 | COc1ccc2c(c1)C(=O)N(c1ccc(N3CCOCC3=O)cc1)CN2C(=O)Cc1ccc(Cl)cc1 | 42 nM | 2aPTT [2]: 16.1 µM; 2PT [3]: 11.6 µM; IC50 [4]: 81000 nM
5 | COc1cccc(C(=O)N2CN(c3ccc(N4CCCCC4=O)cc3)C(=O)c3cc(OC)ccc32)c1 | 354000 nM | –
6 | COc1ccc2c(c1)C(=O)N(c1ccc(N3CCOCC3=O)cc1)CN2C(=O)Cc1ccc(Cl)cc1Cl | 498 nM | –
7 | COc1ccc(CC(=O)N2CN(c3ccc(N4CCCCC4=O)cc3)C(=O)c3cc(OC)ccc32)c(OC)c1 | 1270 nM | –
8 | COc1ccc2c(c1)C(=O)N(c1ccc(N3CCCCC3=O)cc1)CN2C(=O)Cc1ccccc1Cl | 1340 nM | –
9 | COc1ccc(NC(=O)c2ccc(C(=N)N(C)C)cc2)c(C(=O)Nc2ccc(Cl)cn2)c1 [BETRIXABAN] | – | 2aPTT [2]: 1.1 µM; Activity [5]: Dose-dependent effect; 2PT [3]: 2.4 µM; Activity [6]: Dose-dependent effect
10 | COc1ccc2c(c1)C(=O)N(c1ccc(-n3ccccc3=O)cc1)CN2C(=O)Cc1ccc(Cl)cc1 | 165 nM | –
11 | COc1ccc2c(c1)C(=O)N(c1ccc(N3CCOCC3=O)cc1)CN2C(=O)Cc1ccc(Cl)cn1 | 157 nM | –
12 | COc1ccc2c(c1)C(=O)N(c1ccc(N3CCCCC3=O)cc1)CN2C(=O)c1ccc(Cl)cc1 | 52000 nM | –
13 | COc1ccc2c(c1)C(=O)N(c1ccc(N3CCCCC3=O)cc1)CN2C(=O)c1cccc(Cl)c1 | 243000 nM | –
14 | COc1ccc2c(c1)C(=O)N(c1ccc(N3CCOCC3=O)cc1)CN2C(=O)Cc1ccc(Cl)c(Cl)c1 | 345 nM | –
15 | COc1ccc(CC(=O)N2CN(c3ccc(N4CCOCC4=O)cc3)C(=O)c3cc(OC)ccc32)cc1 | 717 nM | –
16 | COc1ccc2c(c1)C(=O)N(c1ccc(N3CCCCC3=O)cc1)CN2C(=O)Cc1ccc(Cl)cc1 | 127 nM | –
17 | COc1ccc2c(c1)C(=O)N(c1ccc(N3CCCCC3=O)cc1)CN2C(=O)c1ccccc1 | 546000 nM | –
18 | COc1ccc(C(=O)N2CN(c3ccc(N4CCCCC4=O)cc3)C(=O)c3cc(OC)ccc32)cc1 | 113000 nM | –
19 | COc1ccc2c(c1)C(=O)N(c1ccc(N3CCCCC3=O)cc1)CN2C(=O)Cc1ccccc1 | 4060 nM | –
20 | COc1ccc2c(c1)C(=O)N(c1ccc(N3CCOCC3=O)cc1)CN2C(=O)Cc1ccc(Cl)s1 | 21 nM | Activity [7]: Dose-dependent effect; 2aPTT [2]: 0.6 µM; Activity [5]: Dose-dependent effect; 2PT [3]: 1.2 µM; IC50 [4]: 67000 nM
21 | COc1ccc2c(c1)C(=O)N(c1ccc(N3CCCCC3=O)cc1)CN2C(=O)Cc1ccc(NC(C)=O)cc1 | 234 nM | –
22 | COc1ccc(CC(=O)N2CN(c3ccc(N4CCCCC4=O)cc3)C(=O)c3cc(OC)ccc32)cc1 | 887 nM | –
23 | COc1ccc2c(c1)C(=O)N(c1ccc(N3CCCCC3=O)cc1)CN2C(=O)Cc1cccc(Cl)c1 | 532 nM | –
